The target of assay [1] is T1, Runt-related transcription factor 1/Core-binding factor subunit beta (Homo sapiens, UniProt Q01196+Q13951). The experiment in a line: Runt domain/CBFb-SMMHC interaction disruptors – biochemical, TR-FRET (AID 1438). The format is protein assay.
The target of assay [2] is T1, Runt-related transcription factor 1/Core-binding factor subunit beta. The experiment in a line: disruptors of Runt domain/CBFb-SMMHC interaction – biochemical, FRET, Cerulean-Runt, Venus-CBFb-SMMHC, uHTS, […] (AID 1434). The format is protein assay.
Assay [3] addresses T2, Cannabinoid receptor 1 (Homo sapiens, UniProt P21554). The experiment in a line: SAR analysis of antagonists of the Cannabinoid Receptor 1 using an Image-Based Assay - Set 4. [Related pubchem assays (depositor defined):AID2013, AID2026]. In kind it is functional.
Assay [4] addresses T2, Cannabinoid receptor 1. The experiment in a line: SAR analysis of agonists of the Cannabinoid Receptor 1 using an Image-Based Assay - Set 4. [Related pubchem assays (depositor defined):AID2013, AID2026]. The format is functional.
Assay [5] concerns the target T3, Probable nicotinate-nucleotide adenylyltransferase (Staphylococcus aureus (strain N315), UniProt P65502). The format is functional, Staphylococcus aureus subsp. aureus N315. The following applies: read-out: IC50_Mean.
A short description of assay [6]: viability of uninfected HEp-2 cells – cell-based, HTS, cytotoxicity control for RSV inhibitor project, dose response (AID 2410). In kind it is functional. To be noted: human respiratory syncytial virus.
The target in assay [7] is T4, Cannabinoid receptor 2 (Homo sapiens, UniProt P34972). Put plainly: SAR analysis of agonists of the Cannabinoid Receptor 2 using an Image-Based Assay - Set 3. [Related pubchem assays (depositor defined):AID2013, AID2026]. In kind it is functional.
Assay [8] deals with G-protein coupled receptor 55 (Homo sapiens, UniProt Q9Y2T6). Put plainly: SAR Analysis of Selective Antagonists of GPR55 using an Image-Based Assay - Set 4. [Related pubchem assays (depositor defined):AID2013, AID2026]. The format is functional.
In assay [9] the target is T3, Probable nicotinate-nucleotide adenylyltransferase. The format is functional, Staphylococcus aureus subsp. aureus N315.
For assay [10], the target named is T4, Cannabinoid receptor 2. The experiment in a line: SAR analysis of antagonists of the Cannabinoid Receptor 2 using an Image-Based Assay - Set 3. [Related pubchem assays (depositor defined):AID2013, AID2026]. In kind it is functional.
Assay [11] has as its target T5, G-protein coupled receptor 35 (Homo sapiens, UniProt Q9HC97). Put plainly: SAR analysis of Antagonists of the GPR35 Receptor using an Image-Based Assay - Set 6. [Related pubchem assays (depositor defined):AID2013, AID2026]. The format is functional.
The target in assay [12] is T5, G-protein coupled receptor 35. Put plainly: SAR analysis of Agonists of the GPR35 Receptor using an Image-Based Assay - Set 4. [Related pubchem assays (depositor defined):AID2013, AID2026]. In kind it is functional.
Assay [13] concerns the target T6, Tyrosine-protein phosphatase non-receptor type 22 (Homo sapiens, UniProt Q9Y2R2).
T6 sequence (Q9Y2R2 whole entry): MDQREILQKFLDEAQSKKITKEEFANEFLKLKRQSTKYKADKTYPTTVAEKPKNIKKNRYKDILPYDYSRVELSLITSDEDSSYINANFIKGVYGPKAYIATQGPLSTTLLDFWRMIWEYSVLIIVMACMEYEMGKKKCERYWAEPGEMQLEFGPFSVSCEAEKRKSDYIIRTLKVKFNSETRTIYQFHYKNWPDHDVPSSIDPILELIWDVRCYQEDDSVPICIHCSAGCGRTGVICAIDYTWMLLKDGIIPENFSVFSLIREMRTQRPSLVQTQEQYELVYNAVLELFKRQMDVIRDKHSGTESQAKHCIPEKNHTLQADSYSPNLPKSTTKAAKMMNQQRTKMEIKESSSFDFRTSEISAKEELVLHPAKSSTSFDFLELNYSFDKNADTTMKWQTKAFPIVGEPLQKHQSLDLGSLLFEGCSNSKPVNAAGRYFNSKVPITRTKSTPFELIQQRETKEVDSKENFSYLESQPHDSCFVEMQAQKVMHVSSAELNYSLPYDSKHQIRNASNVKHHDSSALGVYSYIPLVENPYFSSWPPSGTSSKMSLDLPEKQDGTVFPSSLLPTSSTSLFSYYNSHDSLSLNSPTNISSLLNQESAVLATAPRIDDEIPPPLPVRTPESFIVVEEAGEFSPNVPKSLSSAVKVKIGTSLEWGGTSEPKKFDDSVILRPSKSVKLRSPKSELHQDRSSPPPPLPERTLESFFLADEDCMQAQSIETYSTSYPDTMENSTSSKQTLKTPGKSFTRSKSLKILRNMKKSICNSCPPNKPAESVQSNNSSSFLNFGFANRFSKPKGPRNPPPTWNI
The format is functional.

For assay [14], the target named is T6, Tyrosine-protein phosphatase non-receptor type 22. The format is functional. This is another data set of the same source.
Assay [15] has as its target T7, Tyrosine-protein phosphatase non-receptor type 7 (Homo sapiens, UniProt P35236).
T7 sequence (P35236 whole entry): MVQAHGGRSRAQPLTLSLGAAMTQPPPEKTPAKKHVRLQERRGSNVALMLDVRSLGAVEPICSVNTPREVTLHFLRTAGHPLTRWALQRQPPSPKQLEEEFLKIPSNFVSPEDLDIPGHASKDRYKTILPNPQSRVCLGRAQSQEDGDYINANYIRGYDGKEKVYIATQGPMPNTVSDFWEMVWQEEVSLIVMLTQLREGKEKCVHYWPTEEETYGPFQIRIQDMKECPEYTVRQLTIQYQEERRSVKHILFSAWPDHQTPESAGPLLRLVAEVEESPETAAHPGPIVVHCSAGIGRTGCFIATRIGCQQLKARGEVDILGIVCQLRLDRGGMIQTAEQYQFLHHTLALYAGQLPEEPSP
The format is functional.

The target of assay [16] is T8, E3 ubiquitin-protein ligase XIAP (Homo sapiens, UniProt P98170). Put plainly: Counter Screen using XIAP-Bir3 for Chemical Antagonists of Bir1/2 domains of IAP-family anti-apoptotic proteins. [Related pubchem assays (depositor defined):AID1018, AID1449, AID1514, AID1638, AID1749, AID1750, AID488957, AID488963].
The nature of assay [17]: Luminescence Cell-Based Dose Confirmation HTS to Identify Inhibitors of Platelet Dense Granule Release. [Related pubchem assays: 1663 (Primary HTS), 1678 (Summary of Project)]. In kind it is functional.
Assay [18] has as its target Luciferin 4-monooxygenase (Photinus pyralis, UniProt P08659). Put plainly: inhibition of purified Photinus pyralis luciferase – biochemical, luminescence, dose response (AID 1891).
The target in assay [19] is T8, E3 ubiquitin-protein ligase XIAP. The experiment in a line: small molecules displacing peptide from XIAP – biochemical, IAP family, fluorescence polarization (AID 1018). In kind it is functional.
Assay [20] shares this target. The experiment in a line: SAR analysis of Antagonists of IAP-family anti-apoptotic proteins. [Related pubchem assays (depositor defined):AID1018, AID1449, AID1513, AID1514, AID1638].
Assay [21] shares this target. The experiment in a line: SAR analysis of Antagonists of XIAP-Bir3 domain of IAP-family anti-apoptotic proteins. [Related pubchem assays (depositor defined):AID1018, AID1449, AID1513, AID1514, AID1638].
For assay [22], the target named is T9, Kappa-type opioid receptor (Homo sapiens, UniProt P41145). Put plainly: SAR analysis of small molecule antagonists of the kappa opioid receptor via a luminescent beta-arrestin assay - Set 5. [Related pubchem assays (depositor defined):AID1778, AID1785]. The format is functional.
Assay [23] concerns the target T9, Kappa-type opioid receptor. The experiment in a line: SAR analysis of small molecule antagonists of the kappa opioid receptor via a luminescent beta-arrestin assay - Set 4. [Related pubchem assays (depositor defined):AID1777, AID1778, AID1785, AID1786, AID1966, AID2133, AID2136, AID2285]. In kind it is functional.
The next assay addresses Troponin, cardiac muscle (Homo sapiens, UniProt P19429+P45379+P63316). The experiment in a line: Fluorescence-based biochemical high throughput dose response assay for activators of the calcium sensitivity of cardiac Regulated Thin Filaments (RTF). [Related pubchem assays (depositor defined):AID493008, AID493018, AID504382, AID504383]. The format is protein-complex assay.

Assay [24] concerns the target Induced myeloid leukemia cell differentiation protein Mcl-1 (Homo sapiens, UniProt Q07820). The format is functional.
Assay [25] has as its target T10, Heat shock factor protein 1 (Mus musculus, UniProt P38532).
T10 sequence (P38532 whole entry): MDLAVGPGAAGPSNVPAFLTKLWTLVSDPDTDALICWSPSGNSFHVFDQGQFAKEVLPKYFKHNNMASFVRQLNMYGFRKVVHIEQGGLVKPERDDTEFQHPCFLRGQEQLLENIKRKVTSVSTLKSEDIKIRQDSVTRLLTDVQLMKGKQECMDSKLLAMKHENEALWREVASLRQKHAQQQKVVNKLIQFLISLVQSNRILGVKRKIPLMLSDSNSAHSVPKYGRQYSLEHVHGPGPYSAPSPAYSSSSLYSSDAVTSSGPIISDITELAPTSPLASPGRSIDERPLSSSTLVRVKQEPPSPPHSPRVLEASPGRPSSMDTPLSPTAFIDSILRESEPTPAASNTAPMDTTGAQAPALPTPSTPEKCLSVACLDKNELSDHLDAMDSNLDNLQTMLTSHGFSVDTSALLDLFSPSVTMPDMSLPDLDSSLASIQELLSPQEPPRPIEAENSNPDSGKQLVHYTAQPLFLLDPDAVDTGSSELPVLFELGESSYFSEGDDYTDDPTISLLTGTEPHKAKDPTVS
Put plainly: enhancement of HSF1-driven luciferase signal – cell-based, NIH3T3, luminescence, dose retest, confirmation (AID 435004).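 Note: stress induced by proteasome inhibitor MG132 added 30 min after compound; luciferase reporter driven by HSF1 response element in NIH3T3 cells; actives raise luminescence as potentiators of the MG132 stress response.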 In kind it is functional.

The next assay deals with NADPH oxidase 1 (Homo sapiens, UniProt Q9Y5S8). The experiment in a line: Late stage results from the probe development effort to identify inhibitors of NOX1: HEK/293 IC50. [Related pubchem assays: 1796 (Summary AID (NOX1)), 2752 (Primary screen (NOX1 inhibitors, synthesized analogs set 2)), 2664 (Primary screen (NOX1 inhibitors, synthesized analogs)), 1792 (Primary Screen (NOX1)), 2545 (Confirmation screen (NOX1 …. The format is functional.

The next assay concerns the target NADPH oxidase 2 (Homo sapiens, UniProt P04839). Put plainly: PubChem AID 435013.
Another assay addresses NADPH oxidase 4 (Homo sapiens, UniProt Q9NPH5). Put plainly: PubChem AID 435013.
For a further assay, the target named is NADPH oxidase 3 (Homo sapiens, UniProt Q9HBY0). The experiment in a line: PubChem AID 435013.
Assay [26] is described as follows: PhoP promoter GFP reporter reduction in Typhimurium – purified and synthesized compounds, set 2, PhoP regulon inhibitor project, dose response (AID 2831). The format is functional.

Active and inactive are the calls of the source. Where only a bound is given, the exact number is not on record here.
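Throughout, for IC50 Mean: confirmatory dose-response retesting of NadD inhibitor hits first found in an ultra-high-throughput screen.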

With `Cc1cc(C)n2nc3nc4c(cc3c2n1)CCCC4`, the IC50 in [1] is > 100 µM (inactive); in [2] it was 36.8 µM (active).
Consider `Cc1ccc(-c2cc(C(=O)Nc3ccc(S(=O)(=O)Nc4nccs4)cc3)c3ccccc3n2)c(C)c1`, for which the IC50 on Cannabinoid receptor 1 [3] was 10.2 µM (inactive); in assay [5] it was 21.6 µM (active); in [8], 7.7 µM (active); in [9], 5.29 µM (active); at Cannabinoid receptor 2 [10], > 32 µM (inactive); in assay [11], > 32 µM (inactive). Further, the EC50 (at Cannabinoid receptor 1 [4]; at Cannabinoid receptor 2 [7]; in assay [12]) was > 32 µM (inactive) in each case. Besides, in assay [6], the CC50 is 24.3 µM (active).
Take `COc1ccc(C2CC(c3ccc(C)cc3)=NN2C(=O)CCC(=O)O)cc1OC` (stereo unspecified): the IC50 in assay [13], in assay [14] and in assay [15] was > 79.4 µM (inactive) throughout.
Regarding `Cc1ccnc(N2C(=O)c3ccccc3C2O)c1` (stereo unspecified), the IC50 in [16] is > 100 µM (inactive); in assay [19], > 100 µM (not active). For the same compound, the concentration giving a half-maximal response (EC50) in assay [17] is 6.49 µM (active); in [18], 27.7 µM (active).
`CN[C@@H](C)C(=O)N[C@H](C(=O)N[C@@H](C)C(=O)NNc1ccccc1)C(C)C`: the IC50 was 4.7 µM (active) in [20] and 132 µM (active) in [21].
`Cc1ccc(S(=O)(=O)NCc2ccc(C(=O)NCCN(Cc3ccc([N+](=O)[O-])cc3)C(C)C)cc2)cc1`: the IC50 in assay [22] and in assay [23] was > 20 µM (inactive) each time.
For `COc1ccc(N/C=C2\C(=O)CCc3c2oc2cc(Cl)c(O)c(Cl)c32)cc1`, the EC50 at Troponin, cardiac muscle is 3.93 µM (active); in [25], > 260 µM (inactive). In [24], the IC50 is 4.32 µM (active).
As for `FC(F)(F)c1ccc2c(c1)Nc1ccccc1S2`, the IC50 at NADPH oxidase 1 is 1 µM (active); at NADPH oxidase 2, 9 µM (active); on NADPH oxidase 4 it was 5 µM (active); on NADPH oxidase 3, 7.5 µM (active).
`OC1=C2C(=Nc3ccccc3SC2c2ccco2)c2ccccc21` (stereo unspecified): the IC50 in assay [26] was > 125 µM (active).

(Values after ChEMBL document CHEMBL1201862, “PubChem BioAssay data set” (2004).)
